Experimental data: PubChem BioAssay AID220 (DTP/NCI, 2004)
“And” between values parts separate entries of the source, which are not always exact repeats. Equal values may be shown once. Inconclusive results are not listed.

Test system: CD8F1 mice, subcutaneous mammary adenocarcinoma, T/C%
Experiment: NCI In Vivo Anticancer Drug Screen. Data for tumor model Mammary Adenocarcinoma CD8F1 (subcutaneous) in CD8F1
Settings: higher = larger tumour
Summary of the method: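 Antitumor activity is assessed in transplantable-tumor mice by comparing the treated group with a vehicle-treated control group. Survival or tumor size serves as the measure, reported as T divided by C.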

[1] = endpoint: median tumor weight change, dose: 250.0 mg/kg/injection, schedule: Q01DX001 (ip), vehicle: saline with Tween-80
[2] = endpoint: median tumor weight change, dose: 500.0 mg/kg/injection, schedule: Q01DX001 (ip), vehicle: saline with Tween-80
[3] = endpoint: median tumor weight change, dose: 62.5 mg/kg/injection, schedule: Q01DX001 (ip), vehicle: saline with Tween-80
[4] = endpoint: median tumor weight (est.), dose: 12.5 mg/kg/injection, schedule: Q07DX005 (ip), vehicle: saline with Tween-80
[5] = endpoint: median tumor weight (est.), dose: 25.0 mg/kg/injection, schedule: Q07DX005 (ip), vehicle: saline with Tween-80
[6] = endpoint: median tumor weight (est.), dose: 50.0 mg/kg/injection, schedule: Q07DX005 (ip), vehicle: saline with Tween-80
[7] = endpoint: median tumor weight (est.), dose: 100.0 mg/kg/injection, schedule: Q07DX005 (ip), vehicle: saline with Tween-80
[8] = endpoint: median tumor weight (est.), dose: 100.0 mg/kg/injection, schedule: Q07DX005 (ip), vehicle: saline
[9] = endpoint: median tumor weight (est.), dose: 200.0 mg/kg/injection, schedule: Q07DX005 (ip), vehicle: saline

**Q.** For COC12C(COC(=O)NCCO)C3=C(C(=O)C(C)=C(N)C3=O)N1CC1NC12 (stereo not drawn), which T/C (endpoint: median tumor weight change, dose: 12.5 mg/kg/injection, schedule: Q01DX001 (ip), vehicle: Klucel (hydroxypropylcellulose) (HPC)) is on record?
**A.** 77 % of control

**Q.** And the T/C (endpoint: median tumor weight change, dose: 25.0 mg/kg/injection, schedule: Q01DX001 (ip), vehicle: Klucel (hydroxypropylcellulose) (HPC))?
**A.** 78 % of control

**Q.** What about the T/C (endpoint: median tumor weight change, dose: 50.0 mg/kg/injection, schedule: Q01DX001 (ip), vehicle: Klucel (hydroxypropylcellulose) (HPC)) of the same molecule?
**A.** 33 % of control

**Q.** What about the T/C (endpoint: median tumor weight change, dose: 100.0 mg/kg/injection, schedule: Q01DX001 (ip), vehicle: Klucel (hydroxypropylcellulose) (HPC)) of the same molecule?
**A.** -64 % of control

**Q.** What does the source list for COc1cc(C(=O)c2cc3c(cc2C)OCO3)cc(OC)c1OC?
**A.** T/C (endpoint: median tumor weight change, dose: 125.0 mg/kg/injection, schedule: Q01DX001 (ip), vehicle: Klucel (hydroxypropylcellulose) (HPC)): 59 % of control and 75 % of control; T/C (endpoint: median tumor weight change, dose: 250.0 mg/kg/injection, schedule: Q01DX001 (ip), vehicle: Klucel (hydroxypropylcellulose) (HPC)): 47 % of control and 54 % of control; T/C (endpoint: median tumor weight change, dose: 500.0 mg/kg/injection, schedule: Q01DX001 (ip), vehicle: Klucel (hydroxypropylcellulose) (HPC)): 70 % of control

**Q.** For N=c1c(C(=O)OCc2ccccc2)ncc(CCl)n1O, which T/C [1] is on record?
**A.** 78 % of control and 94 % of control

**Q.** What about the T/C [2] of the same molecule?
**A.** 80 % of control and 82 % of control

**Q.** What about the T/C (endpoint: median tumor weight change, dose: 1000.0 mg/kg/injection, schedule: Q01DX001 (ip), vehicle: saline with Tween-80) of the same molecule?
**A.** 65 % of control and 81 % of control

**Q.** For COc1ccc2c(c1[N+](=O)[O-])CC[C@@H]1[C@@H]2CC[C@]2(C)C(=O)CC[C@@H]12, which T/C [3] is on record?
**A.** 90 % of control

**Q.** What about the T/C [1] of the same molecule?
**A.** 84 % of control

**Q.** What about the T/C [2] of the same molecule?
**A.** 100 % of control

**Q.** What does the source list for CC(=O)NNC(=O)c1ccccn1?
**A.** T/C (endpoint: mean tumor weight, dose: 25.0 mg/kg/injection, schedule: Q01DX009 (ip), vehicle: saline): 28 % of control; T/C (endpoint: mean tumor weight, dose: 50.0 mg/kg/injection, schedule: Q07DX004 (ip), vehicle: saline): 112 % of control; T/C (endpoint: mean tumor weight, dose: 100.0 mg/kg/injection, schedule: Q01DX009 (ip), vehicle: saline): 32 % of control; T/C (endpoint: mean tumor weight, dose: 100.0 mg/kg/injection, schedule: Q07DX004 (ip), vehicle: saline): 74 % of control; T/C (endpoint: mean tumor weight, dose: 100.0 mg/kg/injection, schedule: Q07DX005 (ip), vehicle: saline): 99 % of control; T/C (endpoint: mean tumor weight, dose: 200.0 mg/kg/injection, schedule: Q07DX004 (ip), vehicle: saline): 56 % of control; T/C (endpoint: mean tumor weight, dose: 200.0 mg/kg/injection, schedule: Q07DX005 (ip), vehicle: saline): 82 % of control

**Q.** What does the source list for CC(C)=CCNc1ncnc2c1ncn2C1OC(CO)C(O)C1O (stereo not drawn)?
**A.** T/C [4]: 78 % of control; T/C [5]: 84 % of control; T/C [6]: 113 % of control; T/C [7]: 85 % of control; T/C (endpoint: median tumor weight (est.), dose: 200.0 mg/kg/injection, schedule: Q07DX005 (ip), vehicle: saline with Tween-80): 82 % of control

**Q.** For CCCCCCCCCCCCCCC/C([O-])=N/[N+](C)(C)CC(C)O (stereo not drawn), which T/C (endpoint: median tumor weight change, dose: 125.0 mg/kg/injection, schedule: Q01DX001 (ip), vehicle: saline) is on record?
**A.** 49 % of control

**Q.** And the T/C (endpoint: median tumor weight change, dose: 250.0 mg/kg/injection, schedule: Q01DX001 (ip), vehicle: saline)?
**A.** 96 % of control

**Q.** And the T/C (endpoint: median tumor weight change, dose: 500.0 mg/kg/injection, schedule: Q01DX001 (ip), vehicle: saline)?
**A.** 69 % of control

**Q.** For Nc1nc2c(C(=O)N3CCCC3)nnn2c2ccccc12, which T/C [3] is on record?
**A.** 77 % of control

**Q.** And the T/C (endpoint: median tumor weight change, dose: 125.0 mg/kg/injection, schedule: Q01DX001 (ip), vehicle: saline with Tween-80)?
**A.** 87 % of control

**Q.** For O=C(O)CP(=O)(O)O, which T/C [8] is on record?
**A.** 90 % of control

**Q.** And the T/C [9]?
**A.** 97 % of control

**Q.** And the T/C (endpoint: median tumor weight (est.), dose: 400.0 mg/kg/injection, schedule: Q07DX005 (ip), vehicle: saline)?
**A.** 57 % of control

**Q.** And the T/C (endpoint: median tumor weight (est.), dose: 800.0 mg/kg/injection, schedule: Q07DX005 (ip), vehicle: saline)?
**A.** 79 % of control

**Q.** Which T/C (endpoint: mean tumor weight, dose: 12.5 mg/kg/injection, schedule: Q07DX006 (ip), vehicle: saline) does the source give for C1CN2CN3CCN(CN1C3)C2 here?
**A.** 85 % of control

**Q.** What about the T/C (endpoint: mean tumor weight, dose: 25.0 mg/kg/injection, schedule: Q07DX006 (ip), vehicle: saline) of the same molecule?
**A.** 104 % of control

**Q.** What about the T/C (endpoint: mean tumor weight, dose: 50.0 mg/kg/injection, schedule: Q07DX006 (ip), vehicle: saline) of the same molecule?
**A.** 79 % of control

**Q.** And the T/C (endpoint: mean tumor weight, dose: 100.0 mg/kg/injection, schedule: Q07DX006 (ip), vehicle: saline)?
**A.** 26 % of control

**Q.** And the T/C (endpoint: median tumor weight (est.), dose: 6.25 mg/kg/injection, schedule: Q07DX005 (ip), vehicle: saline)?
**A.** 75 % of control

**Q.** What about the T/C (endpoint: median tumor weight (est.), dose: 12.5 mg/kg/injection, schedule: Q07DX005 (ip), vehicle: saline) of the same molecule?
**A.** 107 % of control

**Q.** And the T/C (endpoint: median tumor weight (est.), dose: 25.0 mg/kg/injection, schedule: Q07DX005 (ip), vehicle: saline)?
**A.** 93 % of control

**Q.** What about the T/C (endpoint: median tumor weight (est.), dose: 50.0 mg/kg/injection, schedule: Q07DX005 (ip), vehicle: saline) of the same molecule?
**A.** 82 % of control

**Q.** And the T/C [8]?
**A.** 107 % of control

**Q.** And the T/C [9]?
**A.** 67 % of control

**Q.** For Cn1c2nc(=O)n(-c3ccccc3)c(=O)c-2nc2c1CCCC2, which T/C [4] is on record?
**A.** 90 % of control

**Q.** What about the T/C [5] of the same molecule?
**A.** 108 % of control

**Q.** What about the T/C [6] of the same molecule?
**A.** 119 % of control

**Q.** And the T/C [7]?
**A.** 100 % of control
